Assay results published in ChEMBL document CHEMBL1201862, “PubChem BioAssay data set” (2004).
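Five concentrations, 48 hours, 96-well plates. GI50 = concentration required for 50% inhibition of growth.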 Active and inactive are the calls of the source. No stated cut-off is given here; in the data, active = GI50 up to about 1.1 µM and inactive = higher. Where a SMILES comes first, the peptide text is derived from it. [ ]: non-standard residue; d: D form. The star is where a group is joined. mTyr = N[CH](Cc1cccc(O)c1)C(=O)O; Cbz = O=C(OCc1ccccc1)*; OBn = c1ccc(CO*)cc1

Experiments:
Assay in all cases: NCI tumour cell line growth inhibition, 48 h
[1] = system: 786-0
[2] = system: A549
[3] = system: ACHN
[4] = system: BT-549
[5] = system: CAKI-1
[6] = system: CCRF-CEM
[7] = system: COLO 205
[8] = system: EKVX
[9] = system: HCC 2998
[10] = system: HCT-116
[11] = system: HCT-15
[12] = system: HL-60
[13] = system: HOP-62
[14] = system: HOP-92
[15] = system: HT-29
[16] = system: Hs-578T
[17] = system: IGROV-1
[18] = system: K562
[19] = system: KM12
[20] = system: LOX IMVI
[21] = system: M14
[22] = system: MCF7
[23] = system: MDA-MB-231
[24] = system: MDA-MB-435
[25] = system: MDA-N
[26] = system: MOLT-4
[27] = system: Malme-3M
[28] = system: NCI-H226
[29] = system: NCI-H23
[30] = system: NCI-H460
[31] = system: NCI-H522
[32] = system: NCI/ADR-RES
[33] = system: OVCAR-3
[34] = system: OVCAR-4
[35] = system: OVCAR-5
[36] = system: OVCAR-8
[37] = system: PC-3
[38] = system: RPMI-8226
[39] = system: RXF 393
[40] = system: SF-268
[41] = system: SF-295
[42] = system: SF-539
[43] = system: SK-MEL-28
[44] = system: SK-MEL-5
[45] = system: SK-OV-3
[46] = system: SN12C
[47] = system: SNB-19
[48] = system: SNB-75
[49] = system: SR
[50] = system: SW-620
[51] = system: T47D
[52] = system: TK-10
[53] = system: U-251
[54] = system: UACC-257
[55] = system: UACC-62
[56] = system: UO-31
[57] = system: A498
[58] = system: DU-145
[59] = system: SK-MEL-2

CN1CCN(c2nc3cc(F)ccc3n3cccc23)CC1
GI50 [1]: 40.4 µM (inactive)
GI50 [2]: 36.9 µM (inactive)
GI50 [3]: 31.6 µM (inactive)
GI50 [4]: 49.2 µM (inactive)
GI50 [5]: 22 µM (inactive)
GI50 [6]: 29.8 µM (inactive)
GI50 [7]: 26.9 µM (inactive)
GI50 [8]: 33.7 µM (inactive)
GI50 [9]: 42.1 µM (inactive)
GI50 [10]: 25.5 µM (inactive)
GI50 [11]: 32.1 µM
GI50 [12]: 39.1 µM (inactive)
GI50 [13]: 31 µM (inactive)
GI50 [14]: 30.2 µM (inactive)
GI50 [15]: 24.9 µM (inactive)
GI50 [16]: 31.4 µM (inactive)
GI50 [17]: 30.8 µM (inactive)
GI50 [18]: 20.4 µM (inactive)
GI50 [19]: 39.2 µM (inactive)
GI50 [20]: 15.8 µM (inactive)
GI50 [21]: 18 µM (inactive)
GI50 [22]: 15.1 µM (inactive)
GI50 [23]: 44.2 µM (inactive)
GI50 [24]: 23.4 µM (inactive)
GI50 [25]: 30.4 µM (inactive)
GI50 [26]: 23.1 µM (inactive)
GI50 [27]: 25.3 µM (inactive)
GI50 [28]: 13.7 µM (inactive)
GI50 [29]: 36 µM (inactive)
GI50 [30]: 18.5 µM (inactive)
GI50 [31]: 46.5 µM (inactive)
GI50 [32]: 50.7 µM (inactive)
GI50 [33]: 82.8 µM (inactive)
GI50 [34]: 30.3 µM (inactive)
GI50 [35]: 51.2 µM (inactive)
GI50 [36]: 51.8 µM (inactive)
GI50 [37]: 28.4 µM (inactive)
GI50 [38]: 40.6 µM (inactive)
GI50 [39]: 23.4 µM (inactive)
GI50 [40]: 48.6 µM (inactive)
GI50 [41]: 21.2 µM (inactive)
GI50 [42]: 21.1 µM (inactive)
GI50 [43]: 21.4 µM (inactive)
GI50 [44]: 20.6 µM (inactive)
GI50 [45]: 45.4 µM (inactive)
GI50 [46]: 48.5 µM (inactive)
GI50 [47]: 60.3 µM (inactive)
GI50 [48]: 29 µM (inactive)
GI50 [49]: 43.8 µM (inactive)
GI50 [50]: 30.5 µM (inactive)
GI50 [51]: 29 µM (inactive)
GI50 [52]: 39.6 µM (inactive)
GI50 [53]: 41.5 µM (inactive)
GI50 [54]: 26.6 µM (inactive)
GI50 [55]: 29.4 µM (inactive)
GI50 [56]: 40.1 µM (inactive)

C=C1CCCC2[C@](C)(CC3=C(Cl)C(=O)C=C(OC)C3=O)C(C)CC[C@]12C (some centres undefined)
GI50 [1]: 1.85 µM (inactive)
GI50 [57]: 8.49 µM (inactive)
GI50 [2]: 5.27 µM (inactive)
GI50 [3]: 4.66 µM (inactive)
GI50 [4]: 5 µM (inactive)
GI50 [5]: 3.39 µM (inactive)
GI50 [6]: 1.45 µM (inactive)
GI50 [7]: 3.37 µM (inactive)
GI50 [58]: 8.04 µM (inactive)
GI50 [8]: 2.02 µM (inactive)
GI50 [9]: 9.12 µM (inactive)
GI50 [10]: 1.75 µM (inactive)
GI50 [11]: 3.46 µM
GI50 [12]: 1.9 µM (inactive)
GI50 [13]: 6.55 µM (inactive)
GI50 [14]: 6.12 µM (inactive)
GI50 [15]: 2.51 µM (inactive)
GI50 [16]: 8.71 µM (inactive)
GI50 [17]: 1.9 µM (inactive)
GI50 [18]: 1.67 µM (inactive)
GI50 [19]: 2.26 µM (inactive)
GI50 [20]: 1.38 µM (inactive)
GI50 [21]: 4.33 µM (inactive)
GI50 [22]: 1.49 µM (inactive)
GI50 [23]: 7.6 µM (inactive)
GI50 [24]: 6.62 µM (inactive)
GI50 [25]: 6.95 µM (inactive)
GI50 [26]: 0.745 µM (active)
GI50 [27]: 8.18 µM (inactive)
GI50 [28]: 7.6 µM (inactive)
GI50 [29]: 4.49 µM (inactive)
GI50 [30]: 8.63 µM (inactive)
GI50 [31]: 1.16 µM (inactive)
GI50 [32]: 3.99 µM (inactive)
GI50 [33]: 5.93 µM (inactive)
GI50 [34]: 7.52 µM (inactive)
GI50 [35]: 2.94 µM (inactive)
GI50 [36]: 2.93 µM (inactive)
GI50 [37]: 1.58 µM (inactive)
GI50 [38]: 1.63 µM (inactive)
GI50 [39]: 5.42 µM (inactive)
GI50 [40]: 5.09 µM (inactive)
GI50 [41]: 7.41 µM (inactive)
GI50 [42]: 2.33 µM (inactive)
GI50 [43]: 7.31 µM (inactive)
GI50 [59]: 6.64 µM (inactive)
GI50 [44]: 6.43 µM (inactive)
GI50 [45]: 20.7 µM (inactive)
GI50 [46]: 5.77 µM (inactive)
GI50 [47]: 7.21 µM (inactive)
GI50 [49]: 1.47 µM (inactive)
GI50 [50]: 3.02 µM (inactive)
GI50 [52]: 4.34 µM (inactive)
GI50 [53]: 3.44 µM (inactive)
GI50 [54]: 5.89 µM (inactive)
GI50 [55]: 6.4 µM (inactive)
GI50 [56]: 1.76 µM (inactive)

COC(=O)C(Cc1cccc(O)c1)NC(=O)C(CC(=O)OCc1ccccc1)NC(=O)OCc1ccccc1 (centres undefined) (Cbz-Asp(OBn)-[mTyr]-OMe; configuration not given here)
GI50 [1]: > 100 µM (inactive)
GI50 [57]: > 100 µM (inactive)
GI50 [2]: > 100 µM (inactive)
GI50 [3]: 63.5 µM (inactive)
GI50 [4]: > 100 µM (inactive)
GI50 [7]: > 100 µM (inactive)
GI50 [8]: > 100 µM (inactive)
GI50 [9]: > 100 µM (inactive)
GI50 [10]: > 100 µM (inactive)
GI50 [11]: > 100 µM
GI50 [12]: 35.4 µM (inactive)
GI50 [13]: > 100 µM (inactive)
GI50 [14]: 29.1 µM (inactive)
GI50 [15]: 88.5 µM (inactive)
GI50 [16]: > 100 µM (inactive)
GI50 [17]: 30.6 µM (inactive)
GI50 [18]: > 100 µM (inactive)
GI50 [19]: > 100 µM (inactive)
GI50 [21]: > 100 µM (inactive)
GI50 [22]: > 100 µM (inactive)
GI50 [23]: > 100 µM (inactive)
GI50 [25]: > 100 µM (inactive)
GI50 [26]: 32.1 µM (inactive)
GI50 [27]: > 100 µM (inactive)
GI50 [28]: > 100 µM (inactive)
GI50 [29]: > 100 µM (inactive)
GI50 [30]: 15.4 µM (inactive)
GI50 [35]: > 100 µM (inactive)
GI50 [36]: > 100 µM (inactive)
GI50 [37]: > 100 µM (inactive)
GI50 [38]: 70.5 µM (inactive)
GI50 [39]: > 100 µM (inactive)
GI50 [43]: > 100 µM (inactive)
GI50 [59]: > 100 µM (inactive)
GI50 [44]: > 100 µM (inactive)
GI50 [46]: > 100 µM (inactive)
GI50 [47]: 65.8 µM (inactive)
GI50 [48]: > 100 µM (inactive)
GI50 [49]: 46.1 µM (inactive)
GI50 [50]: > 100 µM (inactive)
GI50 [51]: 15.9 µM (inactive)
GI50 [52]: > 100 µM (inactive)
GI50 [53]: > 100 µM (inactive)
GI50 [54]: > 100 µM (inactive)
GI50 [55]: 65.5 µM (inactive)
GI50 [56]: 65.3 µM (inactive)
